{"source": "the supplement of paper PMC10627819", "experiment_in_all_cases": "fitness (endpoint OD595 vs no drug) (fraction); higher = more growth", "key": {"S. pneumoniae D39V": {"test_system": "S. pneumoniae D39V", "procedure,_shortened": "(§1)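 Fitness compares growth at the stationary-phase transition with the robust mean of no-drug control wells, as a ratio of optical densities. The ratio is capped at 1. Wells of 384-well plates held 30 µl, or 55 µl for S. pneumoniae, inoculated at OD595 0.01. Readings at OD595 every 30 min for 14 h at 37 °C were corrected against the first reading.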"}, "B. subtilis 168": {"test_system": "B. subtilis 168", "procedure,_shortened": "as §1"}, "S. aureus DSM 20231": {"test_system": "S. aureus DSM 20231", "procedure,_shortened": "as §1"}, "[1]": {"conditions": "first compound 0.012 µg/mL, partner 1.25 µg/mL"}, "[2]": {"conditions": "first compound 0.012 µg/mL, partner 2.5 µg/mL"}, "[3]": {"conditions": "first compound 0.024 µg/mL, partner 1.25 µg/mL"}, "[4]": {"conditions": "first compound 0.048 µg/mL, partner 1.25 µg/mL"}, "[5]": {"conditions": "first compound 0.048 µg/mL, partner 2.5 µg/mL"}}}
{"smiles": "CN(C)[C@@H]1C(O)=C(C(N)=O)C(=O)[C@@]2(O)C(O)=C3C(=O)c4c(O)ccc(Cl)c4[C@@](C)(O)[C@H]3C[C@@H]12", "note": "[Chlortetracycline] + COc1cccc2c1C(=O)c1c(O)c3c(c(O)c1C2=O)C[C@@](O)(C(=O)CO)C[C@@H]3O[C@H]1C[C@H](N)[C@H](O)[C@H](C)O1 [Doxorubicin]", "values": [{"measurement": "fitness", "setting": "S. pneumoniae D39V; first compound 0.012 µg/mL, partner 0.25 µg/mL", "result": 0.829}, {"measurement": "fitness", "setting": "S. pneumoniae D39V; first compound 0.012 µg/mL, partner 0.5 µg/mL", "result": 0.797}, {"measurement": "fitness", "setting": "S. pneumoniae D39V; first compound 0.012 µg/mL, partner 1 µg/mL", "result": 0.714}, {"measurement": "fitness", "setting": "S. pneumoniae D39V; first compound 0.024 µg/mL, partner 0.25 µg/mL", "result": 0.512}, {"measurement": "fitness", "setting": "S. pneumoniae D39V; first compound 0.024 µg/mL, partner 0.5 µg/mL", "result": 0.458}, {"measurement": "fitness", "setting": "S. pneumoniae D39V; first compound 0.024 µg/mL, partner 1 µg/mL", "result": 0.451}, {"measurement": "fitness", "setting": "S. pneumoniae D39V; first compound 0.048 µg/mL, partner 0.25 µg/mL", "result": 0.175}, {"measurement": "fitness", "setting": "S. pneumoniae D39V; first compound 0.048 µg/mL, partner 0.5 µg/mL", "result": 0.221}, {"measurement": "fitness", "setting": "S. pneumoniae D39V; first compound 0.048 µg/mL, partner 1 µg/mL", "result": 0.179}, {"measurement": "fitness", "setting": "S. pneumoniae D39V; first compound 0.375 µg/mL, partner 0.25 µg/mL", "result": 0.0266}, {"measurement": "fitness", "setting": "S. pneumoniae D39V; first compound 0.375 µg/mL, partner 0.5 µg/mL", "result": 0.016}, {"measurement": "fitness", "setting": "S. pneumoniae D39V; first compound 0.375 µg/mL, partner 1 µg/mL", "result": 0.0403}, {"measurement": "fitness", "setting": "S. pneumoniae D39V; first compound 0.75 µg/mL, partner 0.25 µg/mL", "result": 0.031}, {"measurement": "fitness", "setting": "S. pneumoniae D39V; first compound 0.75 µg/mL, partner 0.5 µg/mL", "result": 0.0286}, {"measurement": "fitness", "setting": "S. pneumoniae D39V; first compound 0.75 µg/mL, partner 1 µg/mL", "result": 0.0402}, {"measurement": "fitness", "setting": "S. pneumoniae D39V; first compound 1.5 µg/mL, partner 0.25 µg/mL", "result": 0.0296}, {"measurement": "fitness", "setting": "S. pneumoniae D39V; first compound 1.5 µg/mL, partner 0.5 µg/mL", "result": 0.0259}, {"measurement": "fitness", "setting": "S. pneumoniae D39V; first compound 1.5 µg/mL, partner 1 µg/mL", "result": 0.052}, {"measurement": "fitness", "setting": "B. subtilis 168; first compound 0.0475 µg/mL, partner 0.625 µg/mL", "result": 0.895}, {"measurement": "fitness", "setting": "B. subtilis 168; first compound 0.0475 µg/mL, partner 1.25 µg/mL", "result": 0.845}, {"measurement": "fitness", "setting": "B. subtilis 168; first compound 0.0475 µg/mL, partner 2.5 µg/mL", "result": 0.717}, {"measurement": "fitness", "setting": "B. subtilis 168; first compound 0.095 µg/mL, partner 0.625 µg/mL", "result": 0.789}, {"measurement": "fitness", "setting": "B. subtilis 168; first compound 0.095 µg/mL, partner 1.25 µg/mL", "result": 0.775}, {"measurement": "fitness", "setting": "B. subtilis 168; first compound 0.095 µg/mL, partner 2.5 µg/mL", "result": 0.56}, {"measurement": "fitness", "setting": "B. subtilis 168; first compound 0.19 µg/mL, partner 0.625 µg/mL", "result": 0.44}, {"measurement": "fitness", "setting": "B. subtilis 168; first compound 0.19 µg/mL, partner 1.25 µg/mL", "result": 0.404}, {"measurement": "fitness", "setting": "B. subtilis 168; first compound 0.19 µg/mL, partner 2.5 µg/mL", "result": 0.256}, {"measurement": "fitness", "setting": "S. aureus DSM 20231; first compound 0.006 µg/mL, partner 0.625 µg/mL, one replicate", "result": 0.719}, {"measurement": "fitness", "setting": "S. aureus DSM 20231; first compound 0.006 µg/mL, partner 1.25 µg/mL, one replicate", "result": 0.685}, {"measurement": "fitness", "setting": "S. aureus DSM 20231; first compound 0.006 µg/mL, partner 2.5 µg/mL, one replicate", "result": 0.64}, {"measurement": "fitness", "setting": "S. aureus DSM 20231; first compound 0.012 µg/mL, partner 0.625 µg/mL", "result": 0.632}, {"measurement": "fitness", "setting": "S. aureus DSM 20231; [1]", "result": 0.671}, {"measurement": "fitness", "setting": "S. aureus DSM 20231; [2]", "result": 0.54}, {"measurement": "fitness", "setting": "S. aureus DSM 20231; first compound 0.024 µg/mL, partner 0.625 µg/mL", "result": 0.346}, {"measurement": "fitness", "setting": "S. aureus DSM 20231; [3]", "result": 0.358}, {"measurement": "fitness", "setting": "S. aureus DSM 20231; first compound 0.048 µg/mL, partner 0.625 µg/mL", "result": 0.135}, {"measurement": "fitness", "setting": "S. aureus DSM 20231; [4]", "result": 0.1}, {"measurement": "fitness", "setting": "S. aureus DSM 20231; [5]", "result": 0.0901}]}
{"smiles": "CN(C)[C@@H]1C(O)=C(C(N)=O)C(=O)[C@@]2(O)C(O)=C3C(=O)c4c(O)ccc(Cl)c4[C@@](C)(O)[C@H]3C[C@@H]12", "note": "[Chlortetracycline] + C[C@@H]1O[C@@H]1P(=O)(O)O [Fosfomycin]", "values": [{"measurement": "fitness", "setting": "S. pneumoniae D39V; [1]", "result": 0.936}, {"measurement": "fitness", "setting": "S. pneumoniae D39V; [2]", "result": 0.881}, {"measurement": "fitness", "setting": "S. pneumoniae D39V; first compound 0.012 µg/mL, partner 5 µg/mL", "result": 0.777}, {"measurement": "fitness", "setting": "S. pneumoniae D39V; [3]", "result": 0.629}, {"measurement": "fitness", "setting": "S. pneumoniae D39V; first compound 0.024 µg/mL, partner 2.5 µg/mL", "result": 0.625}, {"measurement": "fitness", "setting": "S. pneumoniae D39V; first compound 0.024 µg/mL, partner 5 µg/mL", "result": 0.628}, {"measurement": "fitness", "setting": "S. pneumoniae D39V; [4]", "result": 0.303}, {"measurement": "fitness", "setting": "S. pneumoniae D39V; [5]", "result": 0.31}, {"measurement": "fitness", "setting": "S. pneumoniae D39V; first compound 0.048 µg/mL, partner 5 µg/mL", "result": 0.319}, {"measurement": "fitness", "setting": "S. pneumoniae D39V; first compound 0.375 µg/mL, partner 1.25 µg/mL", "result": 0.045}, {"measurement": "fitness", "setting": "S. pneumoniae D39V; first compound 0.375 µg/mL, partner 2.5 µg/mL", "result": 0.0463}, {"measurement": "fitness", "setting": "S. pneumoniae D39V; first compound 0.375 µg/mL, partner 5 µg/mL", "result": 0.0538}, {"measurement": "fitness", "setting": "S. pneumoniae D39V; first compound 0.75 µg/mL, partner 1.25 µg/mL", "result": 0.0544}, {"measurement": "fitness", "setting": "S. pneumoniae D39V; first compound 0.75 µg/mL, partner 2.5 µg/mL", "result": 0.0368}, {"measurement": "fitness", "setting": "S. pneumoniae D39V; first compound 0.75 µg/mL, partner 5 µg/mL", "result": 0.0501}, {"measurement": "fitness", "setting": "S. pneumoniae D39V; first compound 1.5 µg/mL, partner 1.25 µg/mL", "result": 0.0742}, {"measurement": "fitness", "setting": "S. pneumoniae D39V; first compound 1.5 µg/mL, partner 2.5 µg/mL", "result": 0.0712}, {"measurement": "fitness", "setting": "S. pneumoniae D39V; first compound 1.5 µg/mL, partner 5 µg/mL", "result": 0.0865}, {"measurement": "fitness", "setting": "B. subtilis 168; first compound 0.0475 µg/mL, partner 1.562 µg/mL", "result": 0.713}, {"measurement": "fitness", "setting": "B. subtilis 168; first compound 0.0475 µg/mL, partner 3.124 µg/mL", "result": 0.636}, {"measurement": "fitness", "setting": "B. subtilis 168; first compound 0.0475 µg/mL, partner 6.248 µg/mL", "result": 0.498}, {"measurement": "fitness", "setting": "B. subtilis 168; first compound 0.095 µg/mL, partner 1.562 µg/mL", "result": 0.629}, {"measurement": "fitness", "setting": "B. subtilis 168; first compound 0.095 µg/mL, partner 3.124 µg/mL", "result": 0.557}, {"measurement": "fitness", "setting": "B. subtilis 168; first compound 0.095 µg/mL, partner 6.248 µg/mL", "result": 0.408}, {"measurement": "fitness", "setting": "B. subtilis 168; first compound 0.19 µg/mL, partner 3.124 µg/mL", "result": 0.336}, {"measurement": "fitness", "setting": "B. subtilis 168; first compound 0.19 µg/mL, partner 6.248 µg/mL", "result": 0.19}, {"measurement": "fitness", "setting": "S. aureus DSM 20231; first compound 0.006 µg/mL, partner 0.781 µg/mL, one replicate", "result": 0.609}, {"measurement": "fitness", "setting": "S. aureus DSM 20231; first compound 0.006 µg/mL, partner 1.562 µg/mL, one replicate", "result": 0.47}, {"measurement": "fitness", "setting": "S. aureus DSM 20231; first compound 0.006 µg/mL, partner 3.124 µg/mL, one replicate", "result": 0.205}, {"measurement": "fitness", "setting": "S. aureus DSM 20231; first compound 0.012 µg/mL, partner 0.781 µg/mL", "result": 0.309}, {"measurement": "fitness", "setting": "S. aureus DSM 20231; first compound 0.012 µg/mL, partner 1.562 µg/mL", "result": 0.145}, {"measurement": "fitness", "setting": "S. aureus DSM 20231; first compound 0.012 µg/mL, partner 3.124 µg/mL", "result": 0.0645}, {"measurement": "fitness", "setting": "S. aureus DSM 20231; first compound 0.024 µg/mL, partner 0.781 µg/mL", "result": 0.154}, {"measurement": "fitness", "setting": "S. aureus DSM 20231; first compound 0.024 µg/mL, partner 1.562 µg/mL", "result": 0.0553}, {"measurement": "fitness", "setting": "S. aureus DSM 20231; first compound 0.024 µg/mL, partner 3.124 µg/mL", "result": 0.0457}, {"measurement": "fitness", "setting": "S. aureus DSM 20231; first compound 0.048 µg/mL, partner 0.781 µg/mL", "result": 0.0506}, {"measurement": "fitness", "setting": "S. aureus DSM 20231; first compound 0.048 µg/mL, partner 1.562 µg/mL", "result": 0.0192}, {"measurement": "fitness", "setting": "S. aureus DSM 20231; first compound 0.048 µg/mL, partner 3.124 µg/mL", "result": 0.0143}]}
